The assay deals with T1, NPR-B (Mus musculus, UniProt Q6VVW5).
T1 construct: Murine NIH3T3 cells express endogenously the CNP signaling receptor, NPR-B; endogenous in cells; host or cells: NIH3T3 (murine fibroblasts)
T1 sequence (Q6VVW5 17-1047): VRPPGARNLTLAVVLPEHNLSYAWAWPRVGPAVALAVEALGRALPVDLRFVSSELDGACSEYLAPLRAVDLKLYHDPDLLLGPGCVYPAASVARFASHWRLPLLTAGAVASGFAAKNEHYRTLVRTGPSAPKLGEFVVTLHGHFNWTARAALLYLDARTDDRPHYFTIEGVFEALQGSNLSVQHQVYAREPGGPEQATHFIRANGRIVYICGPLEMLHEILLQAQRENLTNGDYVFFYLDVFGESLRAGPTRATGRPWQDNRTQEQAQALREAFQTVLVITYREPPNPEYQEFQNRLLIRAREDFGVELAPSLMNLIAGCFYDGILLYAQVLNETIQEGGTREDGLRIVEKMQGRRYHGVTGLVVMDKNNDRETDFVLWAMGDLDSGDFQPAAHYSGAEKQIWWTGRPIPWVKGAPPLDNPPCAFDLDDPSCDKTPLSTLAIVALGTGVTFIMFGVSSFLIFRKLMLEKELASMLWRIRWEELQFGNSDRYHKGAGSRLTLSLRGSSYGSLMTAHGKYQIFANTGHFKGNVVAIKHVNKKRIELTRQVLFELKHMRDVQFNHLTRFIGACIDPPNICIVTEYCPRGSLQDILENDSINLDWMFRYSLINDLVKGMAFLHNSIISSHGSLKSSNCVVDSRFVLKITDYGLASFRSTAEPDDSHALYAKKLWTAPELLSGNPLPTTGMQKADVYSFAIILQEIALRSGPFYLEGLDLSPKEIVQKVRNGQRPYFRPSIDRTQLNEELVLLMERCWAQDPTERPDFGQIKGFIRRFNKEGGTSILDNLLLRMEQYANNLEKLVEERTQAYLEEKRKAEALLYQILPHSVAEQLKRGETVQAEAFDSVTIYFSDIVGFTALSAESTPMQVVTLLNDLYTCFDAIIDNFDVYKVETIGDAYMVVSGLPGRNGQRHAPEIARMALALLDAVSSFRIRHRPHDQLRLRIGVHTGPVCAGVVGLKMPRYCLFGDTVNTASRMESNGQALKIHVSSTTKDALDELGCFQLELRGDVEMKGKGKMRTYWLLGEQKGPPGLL
Nature of the assay: Stimulation of cGMP production in NIH3T3 cells. The assay is classed as cell-based, Murine. Particulars: for cGMP response relative to 1 uM CNP22 (%) at 0.01 µM: read-out: cGMP Response rel. to 1 uM CNP22, 10 nM; for cGMP response relative to 1 uM CNP22 (%) at 1 µM: read-out: cGMP Response rel. to 1 uM CNP22, 1 uM.

[1] abbreviates: NIH3T3 cells, 10 nM natriuretic peptide, normalized to cell number and cGMP production with 1 uM wtCNP22.
Where [2] appears, read: NIH3T3 cells, 1 uM natriuretic peptide, normalized to cell number and cGMP production with 1 uM wtCNP22.

Where two headings read alike, the source gives them in different places. Bridge positions count the residues as written; N and C are the ends. Square brackets hold non-standard residues; d marks the D form. Ends that are not written are not given here. Peptide text beside a SMILES is read from it. tBuAla = CC(C)(C)C[C@H](N)C(=O)O; PEO24 = monodispersed, 1.2 kDa

Consider `CC[C@H](C)[C@@H]1NC(=O)[C@H](CCCNC(=N)N)NC(=O)[C@H](CC(=O)O)NC(=O)[C@H](CC(C)C)NC(=O)[C@H](CCCCN)NC(=O)[C@H](CC(C)C)NC(=O)CNC(=O)[C@H](Cc2ccc(O)cc2)NC(=O)[C@@H](NC(=O)CNC(=O)[C@H](CCCNC(=N)N)NC(=O)[C@H](CO)NC(=O)[C@H](CC(C)C)NC(=O)CN)CSSC[C@@H](C(=O)O)NC(=O)CNC(=O)[C@H](CC(C)C)NC(=O)CNC(=O)[C@H](CO)NC(=O)[C@H](CCSC)NC(=O)[C@H](CO)NC(=O)CNC1=O` [Z] (H-GLSRGCYGLKLDRIGSMSGLGC-OH; disulfide 6-22 (inferred); N-terminus and C-terminus assumed), for which, under setting [1], the cGMP response relative to 1 uM CNP22 (%) at 0.01 µM was 2%. In addition, the cGMP response relative to 1 uM CNP22 (%) at 1 µM under setting [2] is 18%.

For `CC[C@H](C)[C@@H]1NC(=O)[C@H](CCCNC(=N)N)NC(=O)[C@H](CC(=O)O)NC(=O)[C@H](CC(C)C)NC(=O)[C@H](CCCCN)NC(=O)[C@H](CC(C)C)NC(=O)[C@H](CO)NC(=O)[C@H](Cc2ccccc2)NC(=O)[C@@H](NC(=O)CNC(=O)[C@H](CCCNC(=N)N)NC(=O)[C@H](CO)NC(=O)[C@H](CC(C)C)NC(=O)CN)CSSC[C@@H](C(=O)O)NC(=O)CNC(=O)[C@H](CC(C)C)NC(=O)CNC(=O)[C@H](CO)NC(=O)[C@H](CCSC)NC(=O)[C@H](CO)NC(=O)CNC1=O` [AB] (H-GLSRGCFSLKLDRIGSMSGLGC-OH; disulfide 6-22 (inferred); N-terminus and C-terminus assumed), the cGMP response relative to 1 uM CNP22 (%) at 0.01 µM under setting [1] was 26 ± 26%. In addition, the cGMP response relative to 1 uM CNP22 (%) at 1 µM under setting [2] amounted to 86 ± 17%.

Consider `CC[C@H](C)[C@@H]1NC(=O)[C@H](CCCNC(=N)N)NC(=O)[C@H](CC(=O)O)NC(=O)[C@H](CC(C)C)NC(=O)[C@H](CCCCN)NC(=O)[C@H](CC(C)C)NC(=O)CNC(=O)[C@H](Cc2ccccc2)NC(=O)[C@@H](NC(=O)CNC(=O)[C@H](CCCNC(=N)N)NC(=O)[C@H](CO)NC(=O)[C@H](CC(C)C)NC(=O)CNC(=O)[C@H](CCC(N)=O)NC(=O)[C@H](CCC(N)=O)NC(=O)[C@H](CC(N)=O)NC(=O)[C@H](C)NC(=O)CNC(=O)[C@H](CO)NC(=O)[C@H](CCC(N)=O)NC(=O)[C@@H](NC(=O)CNC(=O)[C@H](CO)NC(=O)[C@H](CO)NC(=O)[C@H](Cc2c[nH]cn2)NC(=O)[C@@H](NC(=O)[C@H](CCC(N)=O)NC(=O)CN)[C@@H](C)O)[C@@H](C)O)CSSC[C@@H](C(=O)O)NC(=O)CNC(=O)[C@H](CC(C)C)NC(=O)CNC(=O)[C@H](CO)NC(=O)[C@H](CCSC)NC(=O)[C@H](CO)NC(=O)CNC1=O` [CN] (H-GQTHSSGTQSGANQQGLSRGCFGLKLDRIGSMSGLGC-OH; disulfide 21-37), for which the cGMP response relative to 1 uM CNP22 (%) at 0.01 µM under setting [1] turned out to be 12%. In addition, the cGMP response relative to 1 uM CNP22 (%) at 1 µM under setting [2] is 115%.

On to “PEO24-R-CNP22, K4R: R-CNP22, K4R conjugated at the N-terminus to PEO24 (PEO24-RGLSRGCFGLKLDRIGSMSGLGC; disulfide 7-23 (inferred))”, for which, under setting [1], the “cGMP Response rel. to 1 uM CNP22, 10 nM” value was found to be 15 ± 2. Moreover, under setting [2], the “cGMP Response rel. to 1 uM CNP22, 1 uM” value is 75 ± 12.

As for `CC[C@H](C)[C@@H]1NC(=O)[C@H](CCCNC(=N)N)NC(=O)[C@H](CC(=O)O)NC(=O)[C@H](CC(C)C)NC(=O)[C@H](CCCCN)NC(=O)[C@H](CC(C)C)NC(=O)CNC(=O)[C@H](Cc2ccccc2)NC(=O)[C@@H](NC(=O)CNC(=O)[C@H](CCCNC(=N)N)NC(=O)[C@H](CO)NC(=O)[C@H](CC(C)C)NC(=O)CN)CSSC[C@@H](C(=O)O)NC(=O)CNC(=O)[C@H](CC(C)C)NC(=O)CNC(=O)[C@H](CO)NC(=O)[C@H](C(C)C)NC(=O)[C@H](CO)NC(=O)CNC1=O` [AG] (H-GLSRGCFGLKLDRIGSVSGLGC-OH; disulfide 6-22 (inferred); N-terminus and C-terminus assumed), under “NIH3T3, […]”, the cGMP response relative to 1 uM CNP22 (%) at 0.01 µM worked out at 10% and the cGMP response relative to 1 uM CNP22 (%) at 1 µM was 65%.

With `CC[C@H](C)[C@@H]1NC(=O)[C@H](CCCNC(=N)N)NC(=O)[C@H](CC(=O)O)NC(=O)[C@H](CC(C)C)NC(=O)[C@H](CCCCN)NC(=O)[C@H](CC(C)C)NC(=O)CNC(=O)[C@H](Cc2ccccc2)NC(=O)[C@@H](NC(=O)CNC(=O)[C@H](CCCNC(=N)N)NC(=O)[C@H](CO)NC(=O)[C@H](CC(C)C)NC(=O)CN)CSSC[C@@H](C(=O)O)NC(=O)CNC(=O)[C@H](CC(C)(C)C)NC(=O)CNC(=O)[C@H](CO)NC(=O)[C@H](CCSC)NC(=O)[C@H](CO)NC(=O)CNC1=O` [AK] (H-GLSRGCFGLKLDRIGSMSG[tBuAla]GC-OH; disulfide 6-22 (inferred); N-terminus and C-terminus assumed), the cGMP response relative to 1 uM CNP22 (%) at 0.01 µM under setting [1] was 1%. The cGMP response relative to 1 uM CNP22 (%) at 1 µM under setting [2] worked out at 21%.

`CC[C@H](C)[C@@H]1NC(=O)[C@H](CCCNC(=N)N)NC(=O)[C@H](CC(=O)O)NC(=O)[C@H](CC(C)C)NC(=O)[C@H](CCCCN)NC(=O)[C@H](CC(C)C)NC(=O)CNC(=O)[C@H](Cc2ccccc2)NC(=O)[C@@H](NC(=O)CNC(=O)[C@H](CCCNC(=N)N)NC(=O)[C@H](CO)NC(=O)[C@H](CC(C)C)NC(=O)CN)CSSC[C@@H](C(=O)O)NC(=O)CNC(=O)[C@H](C(C)C)NC(=O)CNC(=O)[C@H](CO)NC(=O)[C@H](CCSC)NC(=O)[C@H](CO)NC(=O)CNC1=O` [AJ] (H-GLSRGCFGLKLDRIGSMSGVGC-OH; disulfide 6-22 (inferred); N-terminus and C-terminus assumed): the cGMP response relative to 1 uM CNP22 (%) at 0.01 µM under setting [1] turned out to be 0.2%. In addition, the cGMP response relative to 1 uM CNP22 (%) at 1 µM under setting [2] was 8%.

Take `CC[C@H](C)[C@@H]1NC(=O)[C@H](CCCNC(=N)N)NC(=O)[C@H](CC(=O)O)NC(=O)[C@H](CC(C)C)NC(=O)[C@H](CCC(N)=O)NC(=O)[C@H](CC(C)C)NC(=O)CNC(=O)[C@H](Cc2ccccc2)NC(=O)[C@@H](NC(=O)CNC(=O)[C@H](CCCNC(=N)N)NC(=O)[C@H](CO)NC(=O)[C@H](CC(C)C)NC(=O)CN)CSSC[C@@H](C(=O)O)NC(=O)CNC(=O)[C@H](CC(C)C)NC(=O)CNC(=O)[C@H](CO)NC(=O)[C@H](CCSC)NC(=O)[C@H](CO)NC(=O)CNC1=O` [BG] (H-GLSRGCFGLQLDRIGSMSGLGC-OH; disulfide 6-22): under setting [1], the cGMP response relative to 1 uM CNP22 (%) at 0.01 µM amounted to 9%. The cGMP response relative to 1 uM CNP22 (%) at 1 µM under setting [2] is 45%.

As for `CC[C@H](C)[C@@H]1NC(=O)[C@H](CCCNC(=N)N)NC(=O)[C@H](CC(=O)O)NC(=O)[C@H](CC(C)C)NC(=O)[C@H](CCCCN)NC(=O)[C@H](CC(C)C)NC(=O)CNC(=O)[C@@H](Cc2ccccc2)NC(=O)[C@@H](NC(=O)CNC(=O)[C@H](CCCCN)NC(=O)[C@H](CO)NC(=O)[C@H](CC(C)C)NC(=O)CN)CSSC[C@@H](C(=O)O)NC(=O)CNC(=O)[C@H](CC(C)C)NC(=O)CNC(=O)[C@H](CO)NC(=O)[C@H](CCSC)NC(=O)[C@H](CO)NC(=O)CNC1=O` [E], under “NIH3T3, […]”, the cGMP response relative to 1 uM CNP22 (%) at 0.01 µM turned out to be 2% and the cGMP response relative to 1 uM CNP22 (%) at 1 µM was found to be 6%.

`CC[C@H](C)[C@@H]1NC(=O)[C@H](CCCNC(=N)N)NC(=O)[C@H](CC(=O)O)NC(=O)[C@H](CC(C)C)NC(=O)[C@H](CCCCN)NC(=O)[C@H](CC(C)C)NC(=O)CNC(=O)[C@H](Cc2ccccc2)NC(=O)[C@@H](NC(=O)CNC(=O)[C@H](CCCCN)NC(=O)[C@H](CO)NC(=O)[C@H](CC(C)C)NC(=O)CNC(=O)[C@H](CCCCN)NC(=O)[C@H](CCC(N)=O)NC(=O)[C@H](CC(N)=O)NC(=O)[C@H](C)NC(=O)CNC(=O)[C@H](CCCCN)NC(=O)[C@H](Cc2ccc(O)cc2)NC(=O)[C@H](CCCCN)NC(=O)[C@H](CCCNC(=N)N)NC(=O)[C@H](C)NC(=O)[C@H](CC(N)=O)NC(=O)[C@@H]2CCCN2C(=O)[C@H](Cc2c[nH]cn2)NC(=O)[C@H](CCC(=O)O)NC(=O)[C@H](CCC(N)=O)NC(=O)CN)CSSC[C@@H](C(=O)O)NC(=O)CNC(=O)[C@H](CC(C)C)NC(=O)CNC(=O)[C@H](CO)NC(=O)[C@H](CCSC)NC(=O)[C@H](CO)NC(=O)CNC1=O` [CT] (H-GQEHPNARKYKGANQKGLSKGCFGLKLDRIGSMSGLGC-OH; disulfide 22-38 (inferred); N-terminus and C-terminus assumed): the cGMP response relative to 1 uM CNP22 (%) at 0.01 µM under setting [1] came out at 60%. Further, the cGMP response relative to 1 uM CNP22 (%) at 1 µM under setting [2] was found to be 121%.

Values taken from US8377884B2, “Variants of C-type natriuretic peptides” (Biomarin Pharmaceutical Inc., priority 2007, dated 2013).
